According to patent US4178436A, “Semi-synthetic oleandomycin derivatives-C8 modifications” (Pfizer Inc., priority 1978, dated 1979):
≈ marks a conversion by molar mass, not a printed value.

Tests used:
[1] = tested on: E.coli 51A226; assay: in vitro minimum inhibitory concentration (MIC) method of Ericsson and Sherris; assay type: cell-based; conditions: Escherichia coli; E.coli 51A226, Gram-negative
From the text: (§1) The oleandomycin compounds of the present invention are effective in inhibiting the growth of microorganisms, especially Gram-positive microorganisms. That is, the high activity against Gram-positive organisms in general shown by these compounds can be contrasted in some respects with the lower activity show against certain especially virulent and well known Gram-negative organisms. The following table illustrates the in vitro antibiotic spectrum of the compound of the instant invention. The tests were run according to the "minimum inhibitory concentration" (MIC) method of Ericsson and Sherris [H. M. Ericsson and J. C. Sherris, Acta. Pathol. Microbiol. Scand. Suppl., 217B, 64 (1971)].

[2] = tested on: Klebsiella pn. 53A009; assay: as above; assay type: cell-based; conditions: Klebsiella pn. 53A009, Gram-negative
From the text: as §1

[3] = tested on: Neisseriae Sicca 66C001; assay: as above; assay type: cell-based; conditions: Neisseriae Sicca 66C001, Gram-negative
From the text: as §1

[4] = tested on: Salm.typhm. 58D009; assay: as above; assay type: cell-based; conditions: Salm.typhm. 58D009, Gram-negative
From the text: as §1

[5] = tested on: Staph.aureus 01A005; assay: as above; assay type: cell-based; conditions: Staphylococcus aureus; Staph.aureus 01A005, Gram-positive
From the text: as §1

[6] = tested on: Staph.aureus 01A400R; assay: as above; assay type: cell-based; conditions: Staphylococcus aureus, Gram-positive
From the text: as §1

[7] = tested on: Strep.py 02C203; assay: as above; assay type: cell-based; conditions: Strep.py 02C203, Gram-positive
From the text: as §1

[8] = tested on: Staph. aureus 01A005; assay: protection against in vivo infection in mice infected with Staph. aureus 01A005 (test procedure of Retsema); conditions: subcutaneous or oral administration to mice infected with Staph. aureus 01A005; compared with natural oleandomycin
Method: The ability of some compounds of the present invention to protect against in vivo infections was determined by subcutaneous or oral administration to mice infected with Staph. aureus 01A005. Using the test procedure of Retsema [J. A. Retsema, et al., Antimicr.

Row | SMILES | MIC [1] [µg/mL] | MIC [2] [µg/mL] | MIC [3] [µg/mL] | MIC [4] [µg/mL] | MIC [5] [µg/mL] | MIC [6] [µg/mL] | MIC [7] [µg/mL] | protection against infection [8]
1 | CO[C@H]1C[C@H](O[C@H]2[C@H](C)[C@@H](O[C@@H]3O[C@H](C)C[C@H](N(C)C)[C@H]3O)[C@@H](C)C[C@@H](CN(C)C)C(=O)[C@H](C)[C@@H](O)[C@@H](C)[C@@H](C)OC(=O)[C@@H]2C)O[C@@H](C)[C@@H]1OC(C)=O [Example 14, 8,8a-Deoxy-8-dimethylaminomethyl-4"-acetyloleandomycin] | > 200 | > 200 | 1.56 (≈ 2.06 µM) | > 200 | 25 (≈ 32.9 µM) | 50 (≈ 65.9 µM) | 50 (≈ 65.9 µM) | 
2 | CO[C@H]1C[C@H](O[C@H]2[C@H](C)[C@@H](O[C@@H]3O[C@H](C)C[C@H](N(C)C)[C@H]3O)[C@@H](C)C[C@@H](CNC(C)=O)C(=O)[C@H](C)[C@@H](O)[C@@H](C)[C@@H](C)OC(=O)[C@@H]2C)O[C@@H](C)[C@@H]1OC(C)=O [Example 19, 8,8a-Deoxy-8-(N-acetyl)aminomethyl-4"-acetyloleandomycin] |  |  |  |  |  |  |  | protection against infection which was comparable to natural oleandomycin
3 | CO[C@H]1C[C@H](O[C@H]2[C@H](C)[C@@H](O[C@@H]3O[C@H](C)C[C@H](N(C)C)[C@H]3O)[C@@H](C)C[C@@H](Cn3ccnc3)C(=O)[C@H](C)[C@@H](O)[C@@H](C)[C@@H](C)OC(=O)[C@@H]2C)O[C@@H](C)[C@@H]1OC(C)=O [Example 24, 8,8a-deoxy-8-(imidazol-1-yl)methyl-4"-acetyloleandomycin] | > 200 | > 200 | ≤ 0.1 | > 200 | 0.39 (≈ 0.499 µM) | 6.25 (≈ 7.99 µM) |  | protection against infection which was comparable to natural oleandomycin

Further lines, with some results ahead:

Row | MIC [1] [µg/mL] | MIC [2] [µg/mL] | MIC [3] [µg/mL] | MIC [4] [µg/mL] | MIC [5] [µg/mL] | MIC [6] [µg/mL] | MIC [7] [µg/mL] | SMILES | protection against infection [8]
4 | > 200 | > 200 | 0.39 (≈ 0.533 µM) | > 200 | 6.25 (≈ 8.54 µM) | 12.5 (≈ 17.1 µM) | 1.56 (≈ 2.13 µM) | CO[C@H]1C[C@H](O[C@H]2[C@H](C)[C@@H](O[C@@H]3O[C@H](C)C[C@H](N(C)C)[C@H]3OC(C)=O)[C@@H](C)C[C@@H](CO)C(=O)[C@H](C)[C@@H](O)[C@@H](C)[C@@H](C)OC(=O)[C@@H]2C)O[C@@H](C)[C@@H]1O [Example 2, 8,8a-Deoxy-8-hydroxymethyl-2'-acetyloleandomycin] | protection against infection which was comparable to natural oleandomycin
5 | > 200 | > 200 | 3.12 (≈ 3.52 µM) | > 200 | 100 (≈ 113 µM) | > 200 | 3.12 (≈ 3.52 µM) | CO[C@H]1C[C@H](O[C@H]2[C@H](C)[C@@H](O[C@@H]3O[C@H](C)C[C@H](N(C)C)[C@H]3OC(C)=O)[C@@H](C)C[C@@H](COS(=O)(=O)c3ccc(C)cc3)C(=O)[C@H](C)[C@@H](O)[C@@H](C)[C@@H](C)OC(=O)[C@@H]2C)O[C@@H](C)[C@@H]1O [Example 5, 8,8a-Deoxy-8-tosyloxymethyl-2'-acetyloleandomycin] | 
6 | > 200 | > 200 | 0.2 (≈ 0.264 µM) | > 200 | 3.1 (≈ 4.1 µM) | 12.5 (≈ 16.5 µM) | 3.1 (≈ 4.1 µM) | CO[C@H]1C[C@H](O[C@H]2[C@H](C)[C@@H](O[C@@H]3O[C@H](C)C[C@H](N(C)C)[C@H]3O)[C@@H](C)C[C@@H](CN=[N+]=[N-])C(=O)[C@H](C)[C@@H](O)[C@@H](C)[C@@H](C)OC(=O)[C@@H]2C)O[C@@H](C)[C@@H]1OC(C)=O [Example 9, 8,8a-Deoxy8-azidomethyl-4"-acetyloleandomycin] | protection against infection which was comparable to natural oleandomycin
7 | > 200 | > 200 | ≤ 0.1 | > 200 | 6.25 (≈ 8.55 µM) | 25 (≈ 34.2 µM) | 50 (≈ 68.4 µM) | CO[C@H]1C[C@H](O[C@H]2[C@H](C)[C@@H](O[C@@H]3O[C@H](C)C[C@H](N(C)C)[C@H]3O)[C@@H](C)C[C@@H](CN)C(=O)[C@H](C)[C@@H](O)[C@@H](C)[C@@H](C)OC(=O)[C@@H]2C)O[C@@H](C)[C@@H]1OC(C)=O [Example 11, 8,8a-Deoxy-8-aminomethyl-4"-acetyloleandomycin] | 
8 | 200 (≈ 267 µM) | > 200 | ≤ 0.1 | > 200 | 3.12 (≈ 4.16 µM) | 50 (≈ 66.6 µM) | 1.56 (≈ 2.08 µM) | CO[C@H]1C[C@H](O[C@H]2[C@H](C)[C@@H](O[C@@H]3O[C@H](C)C[C@H](N(C)C)[C@H]3O)[C@@H](C)C[C@@H](CCl)C(=O)[C@H](C)[C@@H](O)[C@@H](C)[C@@H](C)OC(=O)[C@@H]2C)O[C@@H](C)[C@@H]1OC(C)=O [Example 13, 8,8a-Deoxy-8-chloromethyl-4'-acetyloleandomycin] | protection against infection which was comparable to natural oleandomycin
